Measured values published in patent US11180462B2, “Microbiocidal oxadiazole derivatives” (SYNGENTA PARTICIPATIONS AG, priority 2015, dated 2021).

Key:
Phakopsora Pachyrhizi = experiment: Fungicidal activity against Phakopsora pachyrhizi / soybean / leaf disc preventative (Asian soybean rust); format: in vivo; conditions: foliar, 200 ppm in the applied formulation, soybean leaf disks, compared to untreated control leaf disks, read-out: disease control
How it was run: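 Scored 12 to 14 days post-application as percent control relative to untreated check discs, rust spores were sprayed under the disc one day after compound treatment. Incubation: 20°C, 75% rh, first 24–36 h in darkness, then 12 h daily light; discs kept on water agar.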

[1] = test system: Glomerella lagenarium (Colletotrichum lagenarium); experiment: Fungicidal activity against Glomerella lagenarium (Colletotrichum lagenarium) liquid culture / cucumber / preventative (anthracnose); format: cell-based; conditions: Colletotrichum orbiculare; 20 ppm in the applied formulation; liquid culture (PDB), growth inhibition measured photometrically after 3 to 4 days; compared to untreated control; read-out: disease control
How it was run: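 Percent activity against the untreated check was derived from photometric growth measurements made 2 to 7 days after conidia in potato dextrose broth were combined with compound at 20 ppm. Cultures were kept dark at 24 °C and 96% humidity.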

[2] = test system: Puccinia recondita f. Sp. Tritici; experiment: Fungicidal activity against Puccinia recondita f. sp. tritici / wheat / leaf disc preventative (brown rust); format: in vivo; conditions: foliar, 200 ppm in the applied formulation, wheat leaf segments, preventative, compared to untreated control leaf disks, read-out: disease control
How it was run: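 200 ppm spray on wheat cv. Kanzler leaf segments; spore inoculation +1 day; 19° C., 75% rh, 12 h/12 h light cycle; single rating of % control vs untreated at 7 to 9 days.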

[3] = test system: Puccinia recondita f. Sp. Tritici; experiment: Fungicidal activity against Puccinia recondita f. sp. tritici / wheat / leaf disc curative (brown rust); format: in vivo; conditions: foliar, 24 h, 200 ppm in the applied formulation, wheat leaf segments, curative (applied 1 day after inoculation), compared to untreated control leaf disks, read-out: disease control
How it was run: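 Wheat cv. Kanzler leaf segments on agar, inoculated with rust spore suspension, kept dark at 19° C and 75% RH; formulated compound sprayed 1 day post-inoculation. Incubated 19° C, 75% RH, 12 h light/12 h dark; percent disease control vs untreated scored 6 to 8 days after application.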

C#CCN(Cc1ccc(-c2noc(C(F)(F)F)n2)cc1)C(=O)C(CC)COC (stereo not drawn) [Compound 1.194, 2-(methoxymethyl)-N-prop-2-ynyl-N-[[4-[5-(trifluoromethyl)-1,2,4-oxadiazol-3-yl]phenyl]methyl]-butanamide]
≥ 80%: pest or weed control at 200 ppm (Phakopsora Pachyrhizi) | inhibition of growth at 20 ppm [1] | pest or weed control at 200 ppm [2] | pest or weed control at 200 ppm [3]

O=C(C1CCCO1)N(Cc1ccc(-c2noc(C(F)(F)F)n2)cc1)CC1CC1 (stereo not drawn) [Compound 1.242, N-(cyclopropylmethyl)-N-[[4-[5-(trifluoromethyl)-1,2,4-oxadiazol-3-yl]phenyl]methyl]-tetrahydrofuran-2-carboxamide]
≥ 80%: pest or weed control at 200 ppm (Phakopsora Pachyrhizi) | inhibition of growth at 20 ppm [1] | pest or weed control at 200 ppm [2] | pest or weed control at 200 ppm [3]

COCC(=O)N(Cc1ccc(-c2noc(C(F)(F)F)n2)cc1)C1COC1 [Compound 1.613, 2-methoxy-N-(oxetan-3-yl)-N-[[4-[5-(trifluoromelhyl)-1,2,4-oxadiazol-3-yl]phenyl]methyl]-acetamide]
≥ 80%: pest or weed control at 200 ppm (Phakopsora Pachyrhizi) | inhibition of growth at 20 ppm [1] | pest or weed control at 200 ppm [2] | pest or weed control at 200 ppm [3]

O=C(C1CCC1)N(Cc1ccc(-c2noc(C(F)(F)F)n2)cc1)C1COC1 [Compound 1.742, N-(oxetan-3-yl)-N-[[4-[5-(trifluoromethyl)-1,2,4-oxadiazol-3-yl]phenyl]methyl]-cyclobutane-carboxamide]
≥ 80%: pest or weed control at 200 ppm (Phakopsora Pachyrhizi) | inhibition of growth at 20 ppm [1] | pest or weed control at 200 ppm [2] | pest or weed control at 200 ppm [3]

O=C(ON(Cc1ccc(-c2noc(C(F)(F)F)n2)cc1)C(=O)C1CC1)C1CC1 [Compound 1.608, [cyclopropanecarbonyl-[[4-[5-(trifluoromethyl)-1,2,4-oxadiazol-3-yl]phenyl]methyl]-amino]-cyclopropane-carboxylate]
≥ 80%: pest or weed control at 200 ppm (Phakopsora Pachyrhizi) | inhibition of growth at 20 ppm [1] | pest or weed control at 200 ppm [2] | pest or weed control at 200 ppm [3]

CC(C)C(=O)N(Cc1ccc(-c2noc(C(F)(F)F)n2)cc1)C1CC1 [Compound 1.87, N-cyclopropyl-2-methyl-N-[[4-[5-(trifluoromethyl)-1,2,4-oxadiazol-3-yl]phenyl]methyl]-propanamide]
≥ 80%: pest or weed control at 200 ppm (Phakopsora Pachyrhizi) | inhibition of growth at 20 ppm [1] | pest or weed control at 200 ppm [2] | pest or weed control at 200 ppm [3]

CN(Cc1ccc(-c2noc(C(F)(F)F)n2)cc1)C(=O)C1CC1F (stereo not drawn) [Compound 1.529, 2-fluoro-N-methyl-N-[[4-[5-(trifluoromethyl)-1,2,4-oxadiazol-3-yl]phenyl]methyl]-cyclopropane-carboxamide]
≥ 80%: pest or weed control at 200 ppm (Phakopsora Pachyrhizi) | inhibition of growth at 20 ppm [1] | pest or weed control at 200 ppm [2] | pest or weed control at 200 ppm [3]

C#CCN(Cc1ccc(-c2noc(C(F)(F)F)n2)cc1)C(=O)c1ccccc1 [Compound 1.202, N-prop-2-ynyl-N-[[4-[5-(trifluoromethyl)-1,2,4-oxadiazol-3-yl]phenyl]methyl]-benzamide]
≥ 80%: pest or weed control at 200 ppm (Phakopsora Pachyrhizi) | inhibition of growth at 20 ppm [1] | pest or weed control at 200 ppm [2] | pest or weed control at 200 ppm [3]

CCC(=O)N(Cc1ccc(-c2noc(C(F)(F)F)n2)cc1)C(C)CC (stereo not drawn) [Compound 1.389, N-sec-butyl-N-[[4-[5-(trifiuoromethyl)-1,2,4-oxadiazol-3-yl]phenyl]methyl]-propanamide]
≥ 80%: pest or weed control at 200 ppm (Phakopsora Pachyrhizi) | inhibition of growth at 20 ppm [1] | pest or weed control at 200 ppm [2] | pest or weed control at 200 ppm [3]
